Legend:
[1] = tested on: human cornea model (MCTT HCE^TM); assay: Eye irritation test, human cornea model (MCTT HCE); type: cell-based; settings: methyl acetate (no concentration)
Description: To evaluate the eye irritation potential of the peptide, an in vitro experimental model recognized by the OECD as an alternative animal evaluation method, the human cornea model (MCTT HCE^TM), was used. The experiment was conducted according to the standard experimental method provided by the manufacturer, Biosolution (Seoul, Republic of Korea). First, before the experiment, the color interference of the test material was checked, and to begin the experiment, MCTT HCE^TM was incubated for 22 h at 5% CO2 and 37 °C. Next, 40 μL of the peptide was applied to the top of the MCTT HCE^TM and left to react for 10 min. Afterwards, the peptide was removed using DPBS, and MCTT HCE^TM was transferred to a new medium and cultured for 18 h at 5% CO2 and 37 °C. After the culture was completed, 200 μL/well of WST-1 solution diluted at a ratio of 1:25 was added to a new plate, MCTT HCE^TM was transferred thereon, and 100 μL of WST-1 solution was treated inside.

nAChRs = settings: ref [16]; read-out: IC50 (binds to nAChRs and inhibits the action of ACh); cited from earlier work
From the text: Muscle contraction is induced by acetylcholine (ACh), a neurotransmitter released from nerve cells. ACh is released into the space between muscles and nerves when synaptic vesicles fuse with the cell membrane through the action of the SNARE (Soluble N-ethylmaleimide-sensitive factor attachment protein receptor) complex within nerve cells. Released ACh binds to nAChR or muscarinic acetylcholine receptor (mAChR) on the muscle cell surface to induce muscle contraction. Facial wrinkles are formed by muscle contraction through the binding of muscle nAChRs (subtypes α1, β1, δ, γ, and ...

[2] = tested on: muscle nAChR (TE671 cells expressing nAChRs); assay: In vitro intracellular nicotine response assay; type: cell-based, human; settings: 400 μM nicotine; for nicotine response: Fura-2-AM 340/380 nm, positive control, mean of three repeated measurements
Description: TE671 rhabdomyosarcoma cell line was purchased from Korea Cell Line Bank (Seoul, Republic of Korea). Dermal fibroblasts (Hs68) were purchased from American Type Culture Collection. Cells were cultured in Dulbecco’s Modified Eagle’s medium (DMEM) and medium containing 10% fetal bovine serum (FBS), 1% penicillin-streptomycin at 37 °C, and up to 5% CO2. Human skin keratinocytes (HEKn) were purchased from Thermo Fisher Scientific (Waltham, MA, USA) and cultured using keratinocyte growth medium, keratinocyte-SFM supplemented with epidermal growth factor (EGF) and bovine pituitary extract (BPE) at 37 °C, and up to 5% CO2.
TE671 cells were cultured in DMEM and medium containing 10% FBS, 1% penicillin-streptomycin at 37 °C, and up to 5% CO2. An 18 mm coverslip was placed on a 12-well cell culture plate, cultured cells were removed with trypsin, and 1 mL was dispensed into each well to make 2 × 10^4 cells/well, followed by culturing for 4 days. The coverslip with the cultured cells was transferred to a new 12-well plate, mixed with 997 μL of HBSS buffer and 3 μL of Fura-2-AM (Invitrogen, Waltham, MA, USA), and incubated for 15 min. After incubation, the remaining Fura-2-AM was removed by washing three times with HBSS buffer, and 1 mL of HBSS buffer was additionally dispensed. After mounting the coverslip in the chamber (Live Cell Instrument, Namyangju-si, Republic of Korea), 500 μL of HBSS buffer was dispensed, and the peptide and nicotine samples to be tested were adjusted according to the concentration. Then, 10 to 20 cells were selected and captured alternately at 340 nm and 380 nm wavelengths at 500 ms intervals through a fluorescence microscope (DMI3000 B, Leica Microsystems, Wetzlar, Germany). The fluorescence ratio at 340/380 nm was calculated using the LAS X program.

Compound | Average absorption, second value [1] | eye irritation judgement (Standard) [1] | Cell survival (%Control) ([1]; 10 min exposure, 18 h post-culture, WST-1) [%] | Average absorption ([1]; mean of N1 and N2) | Absorption (N1) ([1]; replicate N1, WST-1, 450 nm) | Absorption (N2) ([1]; replicate N2, WST-1, 450 nm) | IC50 (nAChRs) [µM] | nicotine response ([2]; 100 μM) [%] | nicotine response ([2]; 250 μM) [%] | concentration required to inhibit the nicotinic response [2] [µM] | nicotine response ([2]; 500 μM) [%]
COC(C)=O [Methyl acetate, reference compound] | 0.066 | Irritant | 4.70 | 0.12 | 0.102 | 0.138 | – | – | – | – | –
dipeptide diaminobutyroyl benzylamide [SYN®-AKE] | – | – | – | – | – | – | 180 | 98 | 52.5 | 500 | 3.5

From article PMC11277145, “Wrinkle-Improving Effect of Novel Peptide That Binds to Nicotinic Acetylcholine Receptor” (International Journal of Molecular Sciences, 2024)
